Test results published in patent US9125903B2, “Composition useful for the treatment of lipid metabolism disorders” (SIGMA-TAU INDUSTRIE FARMACEUTICHE RIUNITE, S.P.A., priority 2011, dated 2015).

Legend:
Type in all cases: in vivo
[1] = test system: male CD1 mice on high-cholesterol diet; assay: Plasma HDL-cholesterol levels in male CD1 mice on high-cholesterol diet; details: for % of increase HDL-cholesterol: VS Cont. (high-cholesterol diet control, group 1); for HDL-cholesterol: plasma, mean values ± S.E., oral twice a day for 17 days and one time on day 18, blood 8 h from last treatment, post-absorptive, monacolin K 2, fish oil 200, hexacosanol 25, resveratrol 5, Coenzyme Q10 50, vitamin B6 0.3, vitamin B12 0.25, L-carnitine 20 mg/kg
Protocol: (§1) Male CD 1 mice on a high-cholesterol diet (DP/104, Altromin-Rieper) for about 25 days were used. An acclimatization period of seven days was allowed before the start of the high-cholesterol diet.
(§2) Mice were housed inside cages with stainless steel cover-feed and sterilized and dust-free bedding cobs. Animals were housed under a light-dark cycle, keeping temperature and humidity constant. Parameters of the animal rooms are assessed as follows: 22±2° C. temperature, 55±10% relative humidity, about 15-20 filtered air changes/hour and 12 hours circadian cycle of artificial light (7 a.m., 7 p.m.). The environmental conditions were monitored.
(§3) Mice were divided into groups (10 mice per group) and treated orally (1 mL) twice daily with the compounds of the invention or their combinations at the doses reported in the following:
(§4) monacolin K 2 mg/kg (dissolved in water);
(§5) fish oil 200 mg/kg (dissolved in ethanol);
(§6) Hexacosanol 25 mg/kg (dissolved in ethanol);
(§7) resveratrol 5 mg/kg (dissolved in ethanol);
(§8) Coenzyme Q10 50 mg/kg (dissolved in water);
(§9) Vitamin B6 0.3 mg/kg (dissolved in water);
(§10) Vitamin B12 0.25 mg/kg (dissolved in water);
(§11) L-carnitine 20 mg/kg (dissolved in water).
(§12) At the start of treatment, the body weight of the animals was checked and monitoring of the animals' consumption of water and feed was scheduled.
(§13) On day 18, plasma cholesterol, triglyceride and HDL cholesterol were evaluated. […]

[2] = test system: male CD1 mice on high-cholesterol diet; assay: Plasma triglycerides levels in male CD1 mice on high-cholesterol diet; parameters: % Reduction triglycerides: concentration or dose not given beside the values; details: for % Reduction triglycerides: VS Cont. (high-cholesterol diet control, group 1); for Triglycerides (mg/dL) Mean values ± S.E.: plasma, oral twice a day for 17 days and one time on day 18, blood 8 h from last treatment, post-absorptive, monacolin K 2, fish oil 200, hexacosanol 25, resveratrol 5, Coenzyme Q10 50, vitamin B6 0.3, vitamin B12 0.25, L-carnitine 20 mg/kg
Protocol: as §1, §2, §3, §4, §5, §6, §7, §8, §9, §10, §11, §12, §13

[3] = test system: male CD1 mice on high-cholesterol diet; assay: Plasma total cholesterol levels in male CD1 mice on high-cholesterol diet; parameters: % Reduction total cholesterol: concentration or dose not given beside the values; details: for % Reduction total cholesterol: VS Cont. (high-cholesterol diet control, group 1); for Total-cholesterol (mg/dL) Mean values ± S.E.: plasma, oral twice a day for 17 days and one time on day 18, blood 8 h from last treatment, post-absorptive, monacolin K 2, fish oil 200, hexacosanol 25, resveratrol 5, Coenzyme Q10 50, vitamin B6 0.3, vitamin B12 0.25, L-carnitine 20 mg/kg
Protocol: as §1, §2, §3, §4, §5, §6, §7, §8, §9, §10, §11, §12, §13

| Compound | % of increase HDL-cholesterol [1] | HDL-cholesterol [1] [mg/dL] | % Reduction triglycerides [2] [%] | Triglycerides (mg/dL) Mean values ± S.E. [2] [mg/dL] | % Reduction total cholesterol [3] [%] | Total-cholesterol (mg/dL) Mean values ± S.E. [3] [mg/dL] |
| --- | --- | --- | --- | --- | --- | --- |
| COC1=C(OC)C(=O)C(C/C=C(\C)CC/C=C(\C)CC/C=C(\C)CC/C=C(\C)CC/C=C(\C)CC/C=C(\C)CC/C=C(\C)CC/C=C(\C)CC/C=C(\C)CCC=C(C)C)=C(C)C1=O [Coenzyme Q10] | +4% | 23.9 ± 2.2 | −3 | 196.4 ± 22.1 | −3 | 355.8 ± 25.2 |
| CCCCCCCCCCCCCCCCCCCCCCCCCCO [Hexacosanol] | +15% | 26.4 ± 2.0 | −15 | 172.1 ± 12.3 | −16 | 307.2 ± 23.9 |
| C[N+](C)(C)C[C@H](O)CC(=O)[O-] [L-carnitine] | +21% | 27.8 ± 2.1 | −5 | 192.3 ± 16.4 | −12 | 322.8 ± 21.1 |
| CC[C@H](C)C(=O)O[C@H]1C[C@@H](C)C=C2C=C[C@H](C)[C@H](CC[C@@H]3C[C@@H](O)CC(=O)O3)[C@H]21 [Monacolin K, monacolin K] | +10% | 25.3 ± 2.1 | −8 | 186.3 ± 20.8 | −21 | 289.7 ± 21.0 |
| Oc1ccc(/C=C/c2cc(O)cc(O)c2)cc1 [Resveratrol, trans-3,4′,5-trihydroxystilbene] | +3% | 23.7 ± 1.9 | −22 | 157.9 ± 12.4 | −4 | 352.1 ± 19.1 |
| Cc1ncc(CO)c(CO)c1O.Cl [Vitamin B6] | +5% | 24.1 ± 2.5 | −4 | 194.3 ± 16.7 | −5 | 348.5 ± 18.5 |
| cobalamin [Vitamin B12] | +5% | 24.3 ± 23 | −4 | 194.5 ± 17.4 | −4 | 352.1 ± 20.2 |
